Reference: patent US20060079512A1, “Dibenzodiazepinone analogues, processes for their production and their use as pharmaceuticals” (Ecopia BioSciences, Inc., priority 2003, published 2006)
pIC50: −log10 of the molar value. Read-outs that look alike come from different tables or passages of the source. Each block holds one molecule with its values, some of them ahead of it.

Key:
[1] = system: PC-3 (prostate adenocarcinoma); assay: In vitro cytotoxic activity (GI50), method (a), propidium iodide; type: cell-based; details: method (a), 96 hours; read-out: PC-3 (GI50 μM)
Method: (§1) Compounds were dissolved at 10 mM in DMSO. Dilution in vehicle to concentrations of 30, 10, 3, 1 and 0.3 μM were prepared immediately before assays. Depending on the cell line's growth characteristics, 4000-10000 cells were plated in two 96-wells pates (day 0) and incubated for 16 hours. The following day, propidium iodide was added to one of the two plates and fluorescence measured (Tz). Test compounds were added to the second plate, as well as vehicle control, and cells further incubated for 96 hours. Each compound was tested at each concentration and in triplicates. The equivalent cell number was determined after adding propidium iodide by measuring the signal by fluorescence (C for control).

SF268 (CNS) = assay: as above; type: cell-based; details: Homo sapiens, SF-268; method (a), 96 hours; read-out: SF-268 (GI50 μM)
Method: as §1

[2] = system: MDA-MB-231 (mammary gland adenocarcinoma); assay: as above; type: cell-based; details: Homo sapiens, MDA-MB-231; method (a), 96 hours; read-out: MDA-MB-231 (GI50 μM)
Method: as §1

[3] = system: HT-29 (colorectal carcinoma); assay: as above; type: cell-based; details: Homo sapiens, HT-29; method (a), 96 hours; read-out: HT-29 (GI50 μM)
Method: as §1

[4] = Tissue concentrations 30 min after administration; type: in vivo, female Crl: CD1 mice; details: 30 mg/kg
Method: Compounds 1 and 2 were separately dissolved in ethanol (5%), Polysorbate 80 (15%), PEG 400 (5%) and dextrose (5%) at a final concentration of 6 mg/ml (for all parenteral administration routes). For oral administration, Compound 1 was solubilized in Cremophor® EU Ethanol (50%:50%) at a final concentration of 6 mg/ml. Prior to dosing, animals (female Crl: CD1 mice; 6 weeks of age, 22-24 g) were weighed, randomly selected and assigned to the different treatment groups. Compound 1 was administered by the intravenous (iv), subcutaneous (sc), intraperitoneal (ip), or oral (po) route to the assigned animals. Compound 2 was administered by the intravenous (iv), or intraperitoneal (ip) route to the assigned animals. The dosing volume of Compounds 1 and 2 was 5 mL per kg body weight. Animals were anesthetized with 5% isoflurane prior to bleeding. Blood was collected into microtainer tubes containing the anticoagulant K2EDTA by cardiac puncture from each of 4 animals per bleeding timepoint (2 min, 5 min, 15 min, 30 min, 1 h, 2 h, 4 h and 8 h). Following collection, the samples were centrifuged and the plasma obtained from each sample was recovered and stored frozen (at approximately −80° C.) pending analysis. […] Samples were analysed by LC/MS/MS. […]

36 cancer cell lines = assay: Anticancer activity profiling against 36 cell lines (IC50); type: cell-based
Method: as §1

tissue distribution ([4]; iv and ip dosing): well distributed
tissue levels ([4]; sc dosing, compared with ip): significantly lower
Compound: CC(C)=CCC/C(C)=C/CC/C(C)=C/CN1C(=O)c2cccc(O)c2Nc2c(O)cc(O)cc21 [Compound 1, 10-farnesyl-4,6,8-trihydroxy-5,10-dihydrodibenzo[b,e][1,4]diazepin-11-one]
GI50 [1]: 1.95 µM
GI50 (SF268 (CNS)): 1.96 µM
GI50 [2]: 1.79 µM
GI50 [3]: 11.2 µM

Compound: CC(C)=CCC/C(C)=C/CC/C(C)=C/CN1C(=O)c2cccc(O)c2N(C)c2c(O)cc(O)cc21 [Compound 2, 10-farnesyl-4,6,8-trihydroxy-5-methyl-5,10-dihydro-dibenzo[b,e][1,4]diazepin-11-one]
levels of IC50 values (36 cancer cell lines; 36 tumor types): low micromolar to nanomolar
pIC50 (36 cancer cell lines; Bladder, cell line 1218L (Xenograft), urothelial adeno ca, read-out: IC50): 6.78
pIC50 (36 cancer cell lines; Bladder, cell line T24 (ATCC), transitional cell ca, read-out: IC50): 6.90
pIC50 (36 cancer cell lines; CNS, cell line SF268 (NCI), read-out: IC50): 8.00
pIC50 (36 cancer cell lines; Gastric, cell line 251L (Xenograft), adeno ca, pd, read-out: IC50): 6.98
pIC50 (36 cancer cell lines; Head & Neck, cell line 536L (Xenograft), hypopharynx ca, read-out: IC50): 6.74
pIC50 (36 cancer cell lines; Homo sapiens, 22Rv1, Prostate, cell line 22RV1 (ATCC), adeno ca, md, read-out: IC50): 6.85
pIC50 (36 cancer cell lines; Homo sapiens, CNS cell, CNS, cell line 498NL (Xenograft), glioblastoma, read-out: IC50): 6.75
pIC50 (36 cancer cell lines; Homo sapiens, DU-145, Prostate, cell line DU145 (NCI), adeno ca, md, read-out: IC50): 6.80
pIC50 (36 cancer cell lines; Homo sapiens, HCT-116, Colon, cell line HCT116 (NCI), adeno ca, pd, read-out: IC50): 6.81
pIC50 (36 cancer cell lines; Homo sapiens, HT-29, Colon, cell line HT29 (NCI), adeno ca, pd, read-out: IC50): 6.65
pIC50 (36 cancer cell lines; Homo sapiens, LNCaP, Prostate, cell line LNCAP (DSMZ), adeno ca, md, read-out: IC50): 6.31
pIC50 (36 cancer cell lines; Homo sapiens, MCF7, Mammary, cell line MCF7 (NCI), mamma ca, read-out: IC50): 6.56
pIC50 (36 cancer cell lines; Homo sapiens, NCI-H460, Lung, cell line H460 (NCI), large cell ca, read-out: IC50): 6.44
pIC50 (36 cancer cell lines; Homo sapiens, OVCAR-3, Ovarian, cell line OVCAR3 (NCI), adeno ca, md, read-out: IC50): 6.86
pIC50 (36 cancer cell lines; Homo sapiens, PANC-1, Pancreas, cell line PANC1 (ATCC), read-out: IC50): 6.90
pIC50 (36 cancer cell lines; Homo sapiens, PC-3M, Prostate, cell line PC3M (NCI), adeno ca, pd, read-out: IC50): 6.94
pIC50 (36 cancer cell lines; Lung, cell line 289L (Xenograft), adeno ca, read-out: IC50): 5.81
pIC50 (36 cancer cell lines; Lung, cell line 526L (Xenograft), adeno ca, read-out: IC50): 6.98
pIC50 (36 cancer cell lines; Lung, cell line 529L (Xenograft), large cell ca, read-out: IC50): 6.90
pIC50 (36 cancer cell lines; Lung, cell line 629L (Xenograft), adeno ca, read-out: IC50): 6.79
pIC50 (36 cancer cell lines; Lung, cell line 1121L (Xenograft), large cell ca, read-out: IC50): 6.90
pIC50 (36 cancer cell lines; Mammary, cell line 401NL (Xenograft), pap adeno ca, wd, read-out: IC50): 6.71
pIC50 (36 cancer cell lines; Melanoma, cell line 276L (Xenograft), mm, amelanotic, read-out: IC50): 5.71
pIC50 (36 cancer cell lines; Melanoma, cell line 394NL (Xenograft), mm, amelanotic, pd, read-out: IC50): 7.70
pIC50 (36 cancer cell lines; Melanoma, cell line 462NL (Xenograft), mm, amelanotic, read-out: IC50): 6.01
pIC50 (36 cancer cell lines; Melanoma, cell line 514L (Xenograft), mm, melanotic, read-out: IC50): 6.96
pIC50 (36 cancer cell lines; Melanoma, cell line 520L (Xenograft), mm, melanotic, read-out: IC50): 7.07
pIC50 (36 cancer cell lines; Ovarian, cell line 899L (Xenograft), pap serous ca, md, read-out: IC50): 6.62
pIC50 (36 cancer cell lines; Ovarian, cell line 1619L (Xenograft), adeno ca, md, read-out: IC50): 6.24
pIC50 (36 cancer cell lines; Pancreas, cell line 1657L (Xenograft), adeno ca, md, read-out: IC50): 5.75
pIC50 (36 cancer cell lines; Pleuramesot., cell line 1752L (Xenograft), pleuromesothelioma, read-out: IC50): 5.82
pIC50 (36 cancer cell lines; Renal, cell line 393NL (Xenograft), hypernephroma, wd, read-out: IC50): 6.28
pIC50 (36 cancer cell lines; Renal, cell line 486L (Xenograft), hypernephroma, pd, read-out: IC50): 5.94
pIC50 (36 cancer cell lines; Renal, cell line 944L (Xenograft), hypernephroma, read-out: IC50): 6.64
pIC50 (36 cancer cell lines; Renal, cell line 1781L (Xenograft), renal ca, read-out: IC50): 6.76
pIC50 (36 cancer cell lines; Uterus, cell line 1138L (Xenograft), carcinosarcoma, wd, read-out: IC50): 6.86
pIC50 (36 cancer cell lines; mean of all 36 cell lines, read-out: IC50, Mean of all cell lines): 6.39
